Legend:
Assay type in all cases: cell-based, mouse
[1] = system: α7 integrin (LacZ reporter in α7βgal+/− myoblasts); test: Myoblast α7+/LacZ integrin FDG assay (Burkin assay in myoblasts, 96-well); details: 96-well; for Burkin Assay in Myoblasts, value relative to DMSO: SU9516 analogs, N=3-6; for Burkin Assay in Myoblasts, signal relative to DMSO: α7+/LacZ myoblasts
[2] = system: α7 integrin (LacZ reporter in α7+/LacZ myotubes); test: Myotube α7 integrin FDG assay (Burkin assay in myotubes, 96-well); details: for Burkin Assay in Myotubes, value relative to DMSO: SU9516 analogs, 96-well, N=3-6
[3] = system: β-galactosidase in CMV-LacZ C2C12 myoblasts; test: CMV-LacZ secondary screen in C2C12 myoblasts (β-Gal stabilizing assay); details: for CMV-LACZ in Myoblasts, value relative to DMSO: SU9516 analogs, C2C12 CMV-LacZ, N=2; for CMV-LACZ in Myoblasts (β-galactosidase activity relative to DMSO): CMV-LacZ C2C12 myoblasts
Outline: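 Dose-response runs at 0.5–40 μM (0.5, 1, 5, 10, 20, 40 μM; N=2 per point) used a clonal C2C12 line carrying CMV-LacZ. Cells were assayed as myoblasts or as differentiated myotubes, and β-galactosidase levels were read with the FDG fluorogenic substrate.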

[4] = system: β-galactosidase in CMV-LacZ C2C12 myotubes; test: CMV-LacZ secondary screen in C2C12 myotubes (β-Gal stabilizing assay); details: for CMV-LACZ in Myotubes, value relative to DMSO: SU9516 analogs, C2C12 CMV-LacZ, N=2; for CMV-LACZ in Myotubes, signal relative to DMSO: C2C12 CMV-LacZ myotubes, fold relative to DMSO
Outline: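 Stable CMV-LacZ C2C12 clone; six-point curve 0.5–40 μM; duplicates.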

How did the “Burkin Assay in Myoblasts, value relative to DMSO” value ([1]; 0.5 uM) turn out when `Cc1ccccc1/C=C1\C(=O)Nc2ccc(F)cc21` [MLS001197838-01] was run?
The value was 1.256.

And the “Burkin Assay in Myoblasts, value relative to DMSO” value ([1]; 1 uM)?
The value was 1.198.

What about the “Burkin Assay in Myoblasts, value relative to DMSO” value ([1]; 5 uM) of the same molecule?
Its value is 1.053.

What about the “Burkin Assay in Myoblasts, value relative to DMSO” value ([1]; 10 uM) of the same molecule?
The value was 1.048.

What about the “Burkin Assay in Myoblasts, value relative to DMSO” value ([1]; 20 uM) of the same molecule?
Its value is 0.8911.

What about the “Burkin Assay in Myoblasts, value relative to DMSO” value ([1]; 40 uM) of the same molecule?
The value was 0.8648.

What about the “Burkin Assay in Myotubes, value relative to DMSO” value ([2]; 0.5 uM) of the same molecule?
The value was 1.009.

And the “Burkin Assay in Myotubes, value relative to DMSO” value ([2]; 1 uM)?
The value was 0.981.

And the “Burkin Assay in Myotubes, value relative to DMSO” value ([2]; 5 uM)?
Its value is 1.004.

What about the “Burkin Assay in Myotubes, value relative to DMSO” value ([2]; 10 uM) of the same molecule?
Its value is 1.091.

What about the “Burkin Assay in Myotubes, value relative to DMSO” value ([2]; 20 uM) of the same molecule?
The value was 0.8699.

What about the “Burkin Assay in Myotubes, value relative to DMSO” value ([2]; 40 uM) of the same molecule?
The value was 0.9981.

And the “CMV-LACZ in Myoblasts, value relative to DMSO” value ([3]; 0.5 uM)?
The value was 0.7904.

And the “CMV-LACZ in Myoblasts, value relative to DMSO” value ([3]; 1 uM)?
Its value is 0.9954.

And the “CMV-LACZ in Myoblasts, value relative to DMSO” value ([3]; 5 uM)?
Its value is 1.0010.

What about the “CMV-LACZ in Myoblasts, value relative to DMSO” value ([3]; 10 uM) of the same molecule?
The value was 1.1118.

What about the “CMV-LACZ in Myoblasts, value relative to DMSO” value ([3]; 20 uM) of the same molecule?
The value was 1.1615.

What about the “CMV-LACZ in Myoblasts, value relative to DMSO” value ([3]; 40 uM) of the same molecule?
The value was 0.9437.

And the “CMV-LACZ in Myotubes, value relative to DMSO” value ([4]; 0.5 uM)?
The value was 1.0305.

And the “CMV-LACZ in Myotubes, value relative to DMSO” value ([4]; 1 uM)?
Its value is 1.0038.

What about the “CMV-LACZ in Myotubes, value relative to DMSO” value ([4]; 5 uM) of the same molecule?
Its value is 0.9701.

And the “CMV-LACZ in Myotubes, value relative to DMSO” value ([4]; 10 uM)?
The value was 1.1637.

And the “CMV-LACZ in Myotubes, value relative to DMSO” value ([4]; 20 uM)?
Its value is 0.8547.

And the “CMV-LACZ in Myotubes, value relative to DMSO” value ([4]; 40 uM)?
The value was 1.0063.

Which results are given for `O=C(NCCc1ccc(Cl)cc1)C1CCCO1` (stereo not drawn) [MLS001198271-01]?
Burkin Assay in Myoblasts, signal relative to DMSO ([1]; 0.5 uM): 1.034; Burkin Assay in Myoblasts, signal relative to DMSO ([1]; 1 uM): 1; Burkin Assay in Myoblasts, signal relative to DMSO ([1]; 5 uM): 1.292; Burkin Assay in Myoblasts, signal relative to DMSO ([1]; 10 uM): 1.034; Burkin Assay in Myoblasts, signal relative to DMSO ([1]; 20 uM): 1.088; Burkin Assay in Myoblasts, signal relative to DMSO ([1]; 40 uM): 1.0038; Burkin Assay in Myotubes, α7 integrin LacZ reporter signal relative to DMSO ([2]; 0.5 uM): 1.0083; Burkin Assay in Myotubes, α7 integrin LacZ reporter signal relative to DMSO ([2]; 1 uM): 0.9334; Burkin Assay in Myotubes, α7 integrin LacZ reporter signal relative to DMSO ([2]; 5 uM): 1.113; Burkin Assay in Myotubes, α7 integrin LacZ reporter signal relative to DMSO ([2]; 10 uM): 0.9856; Burkin Assay in Myotubes, α7 integrin LacZ reporter signal relative to DMSO ([2]; 20 uM): 0.9056; Burkin Assay in Myotubes, α7 integrin LacZ reporter signal relative to DMSO ([2]; 40 uM): 0.8217; CMV-LACZ in Myoblasts (β-galactosidase activity relative to DMSO) ([3]; 0.5 uM): 1.0204; CMV-LACZ in Myoblasts (β-galactosidase activity relative to DMSO) ([3]; 1 uM): 1.0883; CMV-LACZ in Myoblasts (β-galactosidase activity relative to DMSO) ([3]; 5 uM): 1.2105; CMV-LACZ in Myoblasts (β-galactosidase activity relative to DMSO) ([3]; 10 uM): 0.8516; CMV-LACZ in Myoblasts (β-galactosidase activity relative to DMSO) ([3]; 20 uM): 0.9944; CMV-LACZ in Myoblasts (β-galactosidase activity relative to DMSO) ([3]; 40 uM): 1.2089; CMV-LACZ in Myotubes, signal relative to DMSO ([4]; 0.5 uM): 0.9933; CMV-LACZ in Myotubes, signal relative to DMSO ([4]; 1 uM): 1.0686; CMV-LACZ in Myotubes, signal relative to DMSO ([4]; 5 uM): 0.9907; CMV-LACZ in Myotubes, signal relative to DMSO ([4]; 10 uM): 0.9957; CMV-LACZ in Myotubes, signal relative to DMSO ([4]; 20 uM): 1.1053; CMV-LACZ in Myotubes, signal relative to DMSO ([4]; 40 uM): 1.0053

For `Cc1[nH]c(=O)[nH]c(=O)c1S(=O)(=O)Nc1ccc(F)cc1Cl` [MLS001200149-01], which “Burkin Assay in Myoblasts, signal relative to DMSO” value ([1]; 0.5 uM) is on record?
The value was 1.039.

What about the “Burkin Assay in Myoblasts, signal relative to DMSO” value ([1]; 1 uM) of the same molecule?
Its value is 1.156.

What about the “Burkin Assay in Myoblasts, signal relative to DMSO” value ([1]; 5 uM) of the same molecule?
The value was 1.0782.

What about the “Burkin Assay in Myoblasts, signal relative to DMSO” value ([1]; 10 uM) of the same molecule?
The value was 0.998.

And the “Burkin Assay in Myoblasts, signal relative to DMSO” value ([1]; 20 uM)?
The value was 1.021.

And the “Burkin Assay in Myoblasts, signal relative to DMSO” value ([1]; 40 uM)?
Its value is 0.9876.

What about the “Burkin Assay in Myotubes, α7 integrin LacZ reporter signal relative to DMSO” value ([2]; 0.5 uM) of the same molecule?
Its value is 1.26.

And the “Burkin Assay in Myotubes, α7 integrin LacZ reporter signal relative to DMSO” value ([2]; 1 uM)?
Its value is 1.072.

And the “Burkin Assay in Myotubes, α7 integrin LacZ reporter signal relative to DMSO” value ([2]; 5 uM)?
The value was 1.069.

What about the “Burkin Assay in Myotubes, α7 integrin LacZ reporter signal relative to DMSO” value ([2]; 10 uM) of the same molecule?
The value was 1.094.

What about the “Burkin Assay in Myotubes, α7 integrin LacZ reporter signal relative to DMSO” value ([2]; 20 uM) of the same molecule?
The value was 0.9286.

What about the “Burkin Assay in Myotubes, α7 integrin LacZ reporter signal relative to DMSO” value ([2]; 40 uM) of the same molecule?
The value was 0.8363.

What about the “CMV-LACZ in Myoblasts (β-galactosidase activity relative to DMSO)” value ([3]; 0.5 uM) of the same molecule?
Its value is 1.1234.

And the “CMV-LACZ in Myoblasts (β-galactosidase activity relative to DMSO)” value ([3]; 1 uM)?
Its value is 0.9203.

What about the “CMV-LACZ in Myoblasts (β-galactosidase activity relative to DMSO)” value ([3]; 5 uM) of the same molecule?
Its value is 0.9489.

And the “CMV-LACZ in Myoblasts (β-galactosidase activity relative to DMSO)” value ([3]; 10 uM)?
The value was 1.0523.

What about the “CMV-LACZ in Myoblasts (β-galactosidase activity relative to DMSO)” value ([3]; 20 uM) of the same molecule?
The value was 0.9363.

What about the “CMV-LACZ in Myoblasts (β-galactosidase activity relative to DMSO)” value ([3]; 40 uM) of the same molecule?
Its value is 1.1552.

What about the “CMV-LACZ in Myotubes, signal relative to DMSO” value ([4]; 0.5 uM) of the same molecule?
Its value is 0.8378.

What about the “CMV-LACZ in Myotubes, signal relative to DMSO” value ([4]; 1 uM) of the same molecule?
Its value is 0.9933.

And the “CMV-LACZ in Myotubes, signal relative to DMSO” value ([4]; 5 uM)?
The value was 0.9974.

And the “CMV-LACZ in Myotubes, signal relative to DMSO” value ([4]; 10 uM)?
Its value is 0.8176.

And the “CMV-LACZ in Myotubes, signal relative to DMSO” value ([4]; 20 uM)?
Its value is 0.8318.

And the “CMV-LACZ in Myotubes, signal relative to DMSO” value ([4]; 40 uM)?
Its value is 0.9424.
